PubChem BioAssay (NCI)
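Cultured in 96-well plates, cells were exposed to test compound for 48 hours across five concentrations. GI50 marks 50% less growth. TGI marks complete inhibition of growth.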

Experiments:
Assay in all cases: NCI anticancer screen, dose series, 48 h
OVCAR-3 ovarian = tested on: OVCAR-3 ovarian
MDA-MB-231 breast = tested on: MDA-MB-231 breast
HCT-15 colon = tested on: HCT-15 colon
NCI/ADR-RES ovarian = tested on: NCI/ADR-RES ovarian
SNB-75 CNS = tested on: SNB-75 CNS
BT-549 breast = tested on: BT-549 breast
MCF7 breast = tested on: MCF7 breast
MDA-MB-435 = tested on: MDA-MB-435
HT29 colon = tested on: HT29 colon
RPMI-8226 leukemia = tested on: RPMI-8226 leukemia
LOX IMVI melanoma = tested on: LOX IMVI melanoma
HCC-2998 colon = tested on: HCC-2998 colon
T-47D breast = tested on: T-47D breast
HL-60(TB) leukemia = tested on: HL-60(TB) leukemia
786-0 renal = tested on: 786-0 renal
UO-31 renal = tested on: UO-31 renal
MALME-3M melanoma = tested on: MALME-3M melanoma
SK-MEL-28 melanoma = tested on: SK-MEL-28 melanoma
SNB-19 CNS = tested on: SNB-19 CNS
SK-OV-3 ovarian = tested on: SK-OV-3 ovarian
A498 renal = tested on: A498 renal
NCI-H460 lung = tested on: NCI-H460 lung
UACC-62 melanoma = tested on: UACC-62 melanoma
IGROV1 ovarian = tested on: IGROV1 ovarian
OVCAR-5 ovarian = tested on: OVCAR-5 ovarian
OVCAR-4 ovarian = tested on: OVCAR-4 ovarian
SF-295 CNS = tested on: SF-295 CNS
SR leukemia = tested on: SR leukemia
HCT-116 colon = tested on: HCT-116 colon
NCI-H23 lung = tested on: NCI-H23 lung
K-562 leukemia = tested on: K-562 leukemia
KM12 colon = tested on: KM12 colon
COLO 205 colon = tested on: COLO 205 colon
RXF 393 renal = tested on: RXF 393 renal
PC-3 prostate = tested on: PC-3 prostate
ACHN renal = tested on: ACHN renal
SF-268 CNS = tested on: SF-268 CNS
EKVX NSCLC = tested on: EKVX NSCLC
SK-MEL-5 melanoma = tested on: SK-MEL-5 melanoma
A549 NSCLC = tested on: A549 NSCLC
OVCAR-8 ovarian = tested on: OVCAR-8 ovarian
SF-539 CNS = tested on: SF-539 CNS
M14 melanoma = tested on: M14 melanoma
HS 578T breast = tested on: HS 578T breast
MOLT-4 leukemia = tested on: MOLT-4 leukemia
TK-10 renal = tested on: TK-10 renal
UACC-257 melanoma = tested on: UACC-257 melanoma
SW-620 colon = tested on: SW-620 colon
NCI-H226 lung = tested on: NCI-H226 lung
NCI-H522 lung = tested on: NCI-H522 lung
HOP-92 NSCLC = tested on: HOP-92 NSCLC
U251 CNS = tested on: U251 CNS
HOP-62 NSCLC = tested on: HOP-62 NSCLC
SK-MEL-2 melanoma = tested on: SK-MEL-2 melanoma
CCRF-CEM leukemia = tested on: CCRF-CEM leukemia
SN12C renal = tested on: SN12C renal

CC[C@H](C)[C@H]1NC(=O)[C@@H]([C@H](O)C(C)C)NC(=O)[C@@H](C)N(C)C(=O)[C@H](C)N(C)C(=O)[C@H](CC(C)C)NC(=O)[C@H](CC(C)C)N(C)C(=O)[C@H](C)N(C)C1=O
GI50 (OVCAR-3 ovarian): 390 nM | TGI (OVCAR-3 ovarian): > 14300 nM | GI50 (MDA-MB-231 breast): 507 nM | TGI (MDA-MB-231 breast): > 14300 nM | GI50 (HCT-15 colon): 538 nM | TGI (HCT-15 colon): > 14300 nM | GI50 (NCI/ADR-RES ovarian): 2300 nM | TGI (NCI/ADR-RES ovarian): > 14300 nM | GI50 (SNB-75 CNS): 280 nM | TGI (SNB-75 CNS): > 14300 nM | GI50 (BT-549 breast): 436 nM | TGI (BT-549 breast): 8460 nM | GI50 (MCF7 breast): 192 nM | TGI (MCF7 breast): > 14300 nM | GI50 (MDA-MB-435): 376 nM | TGI (MDA-MB-435): > 14300 nM | GI50 (HT29 colon): 257 nM | TGI (HT29 colon): > 14300 nM | GI50 (RPMI-8226 leukemia): 446 nM | TGI (RPMI-8226 leukemia): 5970 nM | GI50 (LOX IMVI melanoma): 416 nM | TGI (LOX IMVI melanoma): > 14300 nM | GI50 (HCC-2998 colon): 531 nM | TGI (HCC-2998 colon): > 14300 nM | GI50 (T-47D breast): 164 nM | TGI (T-47D breast): 1150 nM | GI50 (HL-60(TB) leukemia): 995 nM | TGI (HL-60(TB) leukemia): > 14300 nM | GI50 (786-0 renal): 267 nM | TGI (786-0 renal): > 14300 nM | GI50 (UO-31 renal): 383 nM | TGI (UO-31 renal): > 14300 nM | GI50 (MALME-3M melanoma): 286 nM | TGI (MALME-3M melanoma): 10500 nM | GI50 (SK-MEL-28 melanoma): 223 nM | TGI (SK-MEL-28 melanoma): 1760 nM | GI50 (SNB-19 CNS): 266 nM | TGI (SNB-19 CNS): > 14300 nM | GI50 (SK-OV-3 ovarian): 418 nM | TGI (SK-OV-3 ovarian): 11100 nM | GI50 (A498 renal): 468 nM | TGI (A498 renal): 5330 nM | GI50 (NCI-H460 lung): 170 nM | TGI (NCI-H460 lung): 2240 nM | GI50 (UACC-62 melanoma): 331 nM | TGI (UACC-62 melanoma): 4070 nM | GI50 (IGROV1 ovarian): 276 nM | TGI (IGROV1 ovarian): > 14300 nM | GI50 (OVCAR-5 ovarian): 367 nM | TGI (OVCAR-5 ovarian): 13300 nM | GI50 (OVCAR-4 ovarian): 409 nM | TGI (OVCAR-4 ovarian): > 14300 nM | GI50 (SF-295 CNS): 319 nM | TGI (SF-295 CNS): 9170 nM | GI50 (SR leukemia): 526 nM | TGI (SR leukemia): > 14300 nM | GI50 (HCT-116 colon): 198 nM | TGI (HCT-116 colon): > 14300 nM | GI50 (NCI-H23 lung): 272 nM | TGI (NCI-H23 lung): > 14300 nM | GI50 (K-562 leukemia): 547 nM | TGI (K-562 leukemia): > 14300 nM | GI50 (KM12 colon): 326 nM | TGI (KM12 colon): > 14300 nM | GI50 (COLO 205 colon): 278 nM | TGI (COLO 205 colon): 4390 nM | GI50 (RXF 393 renal): 256 nM | TGI (RXF 393 renal): 1900 nM | GI50 (PC-3 prostate): 364 nM | TGI (PC-3 prostate): > 14300 nM | GI50 (ACHN renal): 401 nM | TGI (ACHN renal): > 14300 nM | GI50 (SF-268 CNS): 276 nM | TGI (SF-268 CNS): > 14300 nM | GI50 (EKVX NSCLC): 341 nM | TGI (EKVX NSCLC): > 14300 nM | GI50 (SK-MEL-5 melanoma): 516 nM | TGI (SK-MEL-5 melanoma): > 14300 nM | GI50 (A549 NSCLC): 257 nM | TGI (A549 NSCLC): > 14300 nM | GI50 (OVCAR-8 ovarian): 391 nM | TGI (OVCAR-8 ovarian): > 14300 nM | GI50 (SF-539 CNS): 409 nM | TGI (SF-539 CNS): 4190 nM | GI50 (M14 melanoma): 274 nM | TGI (M14 melanoma): 3850 nM | GI50 (HS 578T breast): 261 nM | TGI (HS 578T breast): 4750 nM | GI50 (MOLT-4 leukemia): 512 nM | TGI (MOLT-4 leukemia): > 14300 nM | GI50 (TK-10 renal): 276 nM | TGI (TK-10 renal): 9720 nM | GI50 (UACC-257 melanoma): 451 nM | TGI (UACC-257 melanoma): > 14300 nM | GI50 (SW-620 colon): 327 nM | TGI (SW-620 colon): > 14300 nM | GI50 (NCI-H226 lung): 456 nM | TGI (NCI-H226 lung): 12400 nM | GI50 (NCI-H522 lung): 329 nM | TGI (NCI-H522 lung): 4700 nM | GI50 (HOP-92 NSCLC): 397 nM | TGI (HOP-92 NSCLC): 12100 nM | GI50 (U251 CNS): 265 nM | TGI (U251 CNS): > 14300 nM | GI50 (HOP-62 NSCLC): 225 nM | TGI (HOP-62 NSCLC): 4260 nM | GI50 (SK-MEL-2 melanoma): 233 nM | TGI (SK-MEL-2 melanoma): 1270 nM | GI50 (CCRF-CEM leukemia): 562 nM | TGI (CCRF-CEM leukemia): > 14300 nM | GI50 (SN12C renal): 221 nM | TGI (SN12C renal): > 14300 nM
